Data reported in patent US9717769B2, “Method for protecting kidney function” (FUGENBIOPHARMA CO., LTD., priority 2015, dated 2017).

Test system: MDCK cell line
Experiment: MTT analysis of kidney-protection effect against cisplatin-induced renal toxicity
Assay type: cell-based, canine
Conditions: treated with cisplatin only (5 μM), MTT 24 hours after cisplatin; relative to negative control (neither cisplatin nor EPS) set at 100%
Experimental: MTT analysis was conducted to confirm the kidney-protection effect of the EPS prepared in Preparation Example 4 against renal toxicity caused by an anti-cancer agent.
First, MDCK cell line (Korean Cell Line Bank, Korea) was cultured in DMEM medium supplemented with 10% fetal bovine serum, 100 μg/mL streptomycin and 100 U/mL penicillin at 37° C. and 5% CO2. 100 μL each of the cultured cells was dispensed to 96-well plate at 2×10^4 cells/mL, and cultured for 24 hours. The EPS was added thereto to a concentration of 25, 50 or 250 μg/mL, and 2 hours thereafter, 5 μM of cisplatin was added thereto.
24 hours after cisplatin was added, 10 μL of MTT (1 mg/mL) dissolved in PBS was added to each well, subjected to reaction for 4 hours. After 4 hours, the formation of formazan was confirmed, and the supernatant was completely removed so that formazan may not be dispersed. Then, the resultant was added to dissolve, in 100 μL of DMSO and dissolved, followed by the measurement of the absorbance at 570 nm using ELISA reader.
The results are shown in FIG. 1 as relative values when the value of the negative control group treated with neither cisplatin nor EPS was set at 100%.

N.N.[Cl][Pt][Cl] [cisplatin, cis-diammine-dichloroplatinum [II]]
survival rate of MDCK cell line: about 60%
